The target in one assay is IKZF1 (Homo sapiens (Human), UniProt Q13422+Q96SW2). The assay can be described thus: Western blot, substrate protein expression in hPBMC: IKZF1. Particulars: for substrate protein remaining % IKZF1: hPBMC, compound 500 nM, 24 hours, Western blot. It counts as cell-based. How it is done:
(§1) The effect of the compounds of the present disclosure on the expression of target proteins in cells was detected using conventional Western blot analysis.
(§2) Human peripheral blood mononuclear cells (hPBMCs) at a density of 1×10^6 cells/mL were thawed according to the PBMC Recovery Protocol (Milecell Biotechnologies Inc, Shanghai). […] After 24 hours of compounds treatment, cells were harvested and lysed in RIPA protein lysate containing phosphatase inhibitors on ice for 30-60 min, followed by centrifugation. The supernatant was aspirated as the extracted total cell protein. The protein concentration of the supernatant was determined using the conventional BCA (Bicinchoninic Acid) assay. The supernatant was then mixed with 4× SDS sample loading buffer, denatured at 95° C. for 5 minutes, and then subjected to SDS-PAGE electrophoresis on a polyacrylamide gel. Proteins were then transferred to a nitrocellulose (NC) membrane, blocked at room temperature for 1-2 h, and processed for antibody incubation and detection according to the manufacturer's instructions (Cell Signaling Technology).
(§3) Half-Maximal Degradation Concentration value (the drug concentration required for degrading proteins by 50%, abbreviated as DC50) reads method: comparing the grayscale values of Western blot bands from drug-treated samples (protein degrader compounds) with those from blank (DMSO-treated) controls, and identifying the drug concentration range at which the grayscale value is half that of the DMSO-treated control bands.
(§4) DC50 values can be calculated using ImageJ software to measure grayscale values of Western blot bands from drug-treated samples. The relationship curve between drug concentration and grayscale values is fitted to estimate the drug concentration corresponding to half the grayscale value.
(§5) Target protein remaining (%) refers to the percentage of target protein remaining in hPBMC cells after treatment with protein degrader compounds.
(§6) Calculation method for protein remaining (%): Use ImageJ software to measure grayscale values of Western blot bands from drug (protein degrader)-treated samples. The grayscale value of drug-treated bands is divided by that of internal control protein bands, and the resulting quotient is normalized to obtain the relative percentage of remaining target protein after protein degrader treatment.
(§7) Target protein degradation rate (%)=100%-target protein remaining (%).
(In general: In western blotting, separated proteins are transferred to a membrane and probed.)

A further assay concerns the target IKZF3 (Homo sapiens (Human), UniProt Q96SW2+Q9UKT9). Briefly: Western blot, substrate protein expression in hPBMC: IKZF3. The format is cell-based. Particulars: for substrate protein remaining % IKZF3: hPBMC, compound 500 nM, 24 hours, Western blot. How it is done: as §1, §2, §3, §4, §5, §6, §7
The next assay has as its target GSPT1 (Homo sapiens (Human), UniProt P15170+Q96SW2). Briefly: Western blot, substrate protein expression in hPBMC: GSPT1. It counts as cell-based. The settings on record: hPBMC, compound 500 nM, 24 hours, Western blot. How it is done: as §1, §2, §3, §4, §5, §6, §7
The target of assay [1] is human Cereblon WT GST-tagged protein (Homo sapiens (Human), UniProt Q96SW2). Briefly: CRBN-binding affinity, HTRF (CEREBLON BINDING kit, CISBIO). The settings on record: HTRF inhibitory activity. The method, then:
I. Determination of CRBN-binding affinity of compounds of the present disclosure:
The CEREBLON BINDING kits (specification: 10,000 tests; product number: Catalog #64BDCRBNPEH; CISBIO company) was used to determine the CRBN binding ability of the compounds to be tested through a HTRF method (homogeneous time-resolved fluorescence). The specific methods are as follows: • 1. […] Then, 2.5 μL of human Cereblon WT GST-tagged protein solution was added to each well. Finally, 5 μL of the thoroughly mixed Thalidomide-Red reagent and GST Eu antibody working solution were added to each of the aforementioned wells. […] The blank control wells were sequentially added with 2.5 μL of diluent #9 (1X) solution, 2.5 μL of PROTAC binding buffer, and 5 μL of thoroughly mixed Thalidomide-Red reagent and GST Eu antibody working solution. • 4.
The corresponding CRBN binding inhibition rate was calculated using the following method: […]
OD 620 nmcompound is the absorbance value of each well of the compounds to be tested of the present disclosure at an emission wavelength of 620 nm. […] OD 620 nmcontrol is the absorbance value of the blank control well at an emission wavelength of 620 nm. […] OD 620 nmStd0 is the absorbance value of the solvent control well at an emission wavelength of 620 nm.
For orientation: Time-resolved FRET reads energy transfer from a long-lived donor to a nearby acceptor.

Chain of human Cereblon WT GST-tagged protein (Q96SW2 whole entry): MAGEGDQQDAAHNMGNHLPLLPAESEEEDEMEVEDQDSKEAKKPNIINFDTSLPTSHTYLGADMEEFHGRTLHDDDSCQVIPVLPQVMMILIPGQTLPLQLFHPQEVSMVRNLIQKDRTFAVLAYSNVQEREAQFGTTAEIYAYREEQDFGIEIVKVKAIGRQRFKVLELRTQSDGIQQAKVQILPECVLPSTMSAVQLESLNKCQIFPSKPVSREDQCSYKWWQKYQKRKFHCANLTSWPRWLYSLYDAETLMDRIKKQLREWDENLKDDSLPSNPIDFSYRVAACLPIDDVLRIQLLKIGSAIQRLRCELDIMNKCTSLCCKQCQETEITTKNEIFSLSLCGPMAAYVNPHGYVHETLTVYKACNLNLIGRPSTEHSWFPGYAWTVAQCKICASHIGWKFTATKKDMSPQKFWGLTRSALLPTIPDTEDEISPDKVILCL
Chain of IKZF1 (Q13422 whole entry): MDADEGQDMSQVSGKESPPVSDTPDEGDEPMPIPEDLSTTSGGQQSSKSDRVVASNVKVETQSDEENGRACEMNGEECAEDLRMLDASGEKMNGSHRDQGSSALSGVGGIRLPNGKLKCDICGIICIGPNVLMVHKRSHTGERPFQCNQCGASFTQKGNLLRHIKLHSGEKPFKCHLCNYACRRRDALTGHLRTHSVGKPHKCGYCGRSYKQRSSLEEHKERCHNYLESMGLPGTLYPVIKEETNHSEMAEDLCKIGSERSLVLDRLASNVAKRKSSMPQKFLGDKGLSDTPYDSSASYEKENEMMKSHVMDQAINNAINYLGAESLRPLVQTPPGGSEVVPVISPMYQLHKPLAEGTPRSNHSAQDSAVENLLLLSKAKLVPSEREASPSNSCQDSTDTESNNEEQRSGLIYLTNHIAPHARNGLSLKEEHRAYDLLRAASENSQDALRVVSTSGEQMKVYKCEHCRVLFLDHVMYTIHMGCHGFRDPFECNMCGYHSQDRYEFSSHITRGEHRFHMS
Chain of IKZF1 (Q96SW2 whole entry): as the sequence (Q96SW2 whole entry) above
Chain of IKZF1 (Q16531 whole entry partner): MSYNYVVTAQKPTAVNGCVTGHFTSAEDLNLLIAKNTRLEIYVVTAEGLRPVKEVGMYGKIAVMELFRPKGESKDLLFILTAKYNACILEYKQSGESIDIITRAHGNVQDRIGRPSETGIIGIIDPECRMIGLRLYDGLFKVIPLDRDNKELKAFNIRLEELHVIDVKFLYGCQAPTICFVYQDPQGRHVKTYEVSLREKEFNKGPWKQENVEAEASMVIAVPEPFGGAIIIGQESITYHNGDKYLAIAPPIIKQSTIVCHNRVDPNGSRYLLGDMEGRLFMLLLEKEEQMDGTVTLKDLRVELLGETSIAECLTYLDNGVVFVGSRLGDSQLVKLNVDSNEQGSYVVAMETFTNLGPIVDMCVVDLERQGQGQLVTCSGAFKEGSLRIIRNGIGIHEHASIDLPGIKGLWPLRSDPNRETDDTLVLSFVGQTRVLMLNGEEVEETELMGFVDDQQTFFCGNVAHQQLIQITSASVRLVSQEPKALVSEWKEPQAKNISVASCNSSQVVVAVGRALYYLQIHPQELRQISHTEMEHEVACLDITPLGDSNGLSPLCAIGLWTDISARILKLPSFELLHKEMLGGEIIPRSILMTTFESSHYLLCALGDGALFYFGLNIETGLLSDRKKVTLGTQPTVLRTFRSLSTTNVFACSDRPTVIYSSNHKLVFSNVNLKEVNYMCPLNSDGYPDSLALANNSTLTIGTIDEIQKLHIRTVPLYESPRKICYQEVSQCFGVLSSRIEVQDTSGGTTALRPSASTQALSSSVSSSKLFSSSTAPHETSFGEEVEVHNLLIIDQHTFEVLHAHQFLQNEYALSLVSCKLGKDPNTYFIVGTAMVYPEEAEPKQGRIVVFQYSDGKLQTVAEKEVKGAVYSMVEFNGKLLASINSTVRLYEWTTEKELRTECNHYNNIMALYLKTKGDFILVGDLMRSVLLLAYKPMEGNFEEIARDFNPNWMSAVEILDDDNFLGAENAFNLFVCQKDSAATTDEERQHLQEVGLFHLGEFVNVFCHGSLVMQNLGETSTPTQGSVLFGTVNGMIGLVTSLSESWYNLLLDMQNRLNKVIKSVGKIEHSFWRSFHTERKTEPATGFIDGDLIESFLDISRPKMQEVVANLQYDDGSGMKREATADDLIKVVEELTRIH
Chain of GSPT1 (P15170 whole entry): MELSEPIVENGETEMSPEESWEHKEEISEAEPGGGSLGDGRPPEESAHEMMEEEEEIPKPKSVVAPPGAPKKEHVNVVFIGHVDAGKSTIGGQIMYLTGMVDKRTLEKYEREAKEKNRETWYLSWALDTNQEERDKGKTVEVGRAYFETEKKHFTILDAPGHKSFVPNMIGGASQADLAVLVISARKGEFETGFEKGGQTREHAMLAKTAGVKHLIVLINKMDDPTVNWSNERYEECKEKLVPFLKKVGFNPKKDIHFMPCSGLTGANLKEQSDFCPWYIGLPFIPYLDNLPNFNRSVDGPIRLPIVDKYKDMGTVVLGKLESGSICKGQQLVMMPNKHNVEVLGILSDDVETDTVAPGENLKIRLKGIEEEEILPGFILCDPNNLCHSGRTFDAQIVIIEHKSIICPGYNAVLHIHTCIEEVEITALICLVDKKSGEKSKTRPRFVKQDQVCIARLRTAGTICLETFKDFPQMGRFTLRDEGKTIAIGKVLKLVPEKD
Chain of GSPT1 (Q96SW2 whole entry): as the sequence (Q96SW2 whole entry) above
Chain of GSPT1 (Q16531 whole entry partner): as the sequence (Q16531 whole entry partner) above
Chain of IKZF3 (Q9UKT9 whole entry): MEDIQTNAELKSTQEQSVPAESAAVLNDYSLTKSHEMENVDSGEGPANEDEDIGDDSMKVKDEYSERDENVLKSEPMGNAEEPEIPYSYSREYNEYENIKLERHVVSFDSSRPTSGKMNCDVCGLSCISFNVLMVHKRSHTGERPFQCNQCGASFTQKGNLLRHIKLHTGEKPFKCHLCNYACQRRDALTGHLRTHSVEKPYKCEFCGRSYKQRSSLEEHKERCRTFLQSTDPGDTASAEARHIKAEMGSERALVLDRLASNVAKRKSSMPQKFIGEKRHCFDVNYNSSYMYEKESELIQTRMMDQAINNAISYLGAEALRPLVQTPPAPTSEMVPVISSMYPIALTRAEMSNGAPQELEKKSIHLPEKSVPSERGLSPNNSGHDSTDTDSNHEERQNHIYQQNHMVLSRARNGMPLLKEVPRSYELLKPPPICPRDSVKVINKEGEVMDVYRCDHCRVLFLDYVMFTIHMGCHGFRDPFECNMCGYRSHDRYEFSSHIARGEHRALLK
Chain of IKZF3 (Q96SW2 whole entry): as the sequence (Q96SW2 whole entry) above
Chain of IKZF3 (Q16531 whole entry partner): as the sequence (Q16531 whole entry partner) above

Regarding `O=C1CCC(N2Cc3c(ccc(CN4C5CC4CN(C(c4ccccc4)c4ccccc4)C5)c3F)C2=O)C(=O)N1` (centres unmarked) [GT-03572, 3-(5-((3-benzhydryl-3,6-diazabicyclo[3.1.1]heptan-6-yl)methyl)-4-fluoro-1-oxoisoindolin-2-yl)piperidine-2,6-dione], the “substrate protein remaining % IKZF1” value at IKZF1 is reported as “B (B represents substrate protein remaining % > 50%)”. In addition, the “substrate protein remaining % IKZF3” value on IKZF3 is “A (A represents 0% ≤ substrate protein remaining % ≤ 50%)”. In addition, the “substrate protein remaining % GSPT1” value on GSPT1 is reported as “A (A represents 0% ≤ substrate protein remaining % ≤ 50%)”.
Consider `O=C1CCC(N2Cc3c(CN4CCN(C(c5ccc(Cl)cc5)c5ccc(Cl)cc5)CC4)cccc3C2=O)C(=O)N1` (centres unmarked) [GT-03648, 3-(4-((4-(bis(4-chlorophenyl)methyl)piperazin-1-yl)methyl)-1-oxoisoindolin-2-yl)piperidine-2,6-dione], for which the “substrate protein remaining % IKZF1” value on IKZF1 is “B (B represents substrate protein remaining % > 50%)”. At IKZF3, the “substrate protein remaining % IKZF3” value was “B (B represents substrate protein remaining % > 50%)”. Moreover, the “substrate protein remaining % GSPT1” value at GSPT1 is on record as “A (A represents 0% ≤ substrate protein remaining % ≤ 50%)”.
As for `O=C1CCC(N2Cc3cc(CN4CCN(C(c5cccnc5)c5cccnc5)CC4)c(F)cc3C2=O)C(=O)N1` (centres unmarked) [GT-04386, 3-(5-((4-(di(pyridin-3-yl)methyl)piperazin-1-yl)methyl)-6-fluoro-1-oxoisoindolin-2-yl)piperidine-2,6-dione], the “substrate protein remaining % IKZF1” value on IKZF1 is reported as “B (B represents substrate protein remaining % > 50%)”. The “substrate protein remaining % IKZF3” value on IKZF3 is given as “B (B represents substrate protein remaining % > 50%)”. On GSPT1, the “substrate protein remaining % GSPT1” value is on record as “A (A represents 0% ≤ substrate protein remaining % ≤ 50%)”.
For `O=C1CCC(N2C(=O)c3ccc(CN4CCN(C(c5ccccc5)c5ccccc5)CC4)cc3C2=O)C(=O)N1` (centres unmarked) [GT-05690, 5-((4-benzhydrylpiperazin-1-yl)methyl)-2-(2,6-dioxopiperidin-3-yl) isoindoline-1,3-dione], the “substrate protein remaining % IKZF1” value at IKZF1 is given as “A (A represents 0% ≤ substrate protein remaining % ≤ 50%)”. Besides, at IKZF1 (hPBMCs), the “concentration at which IKZF1 protein was significantly degraded (Western blot, FIG. 1)” value is on record as less than 500 nM. Also, on IKZF3, the “substrate protein remaining % IKZF3” value was “A (A represents 0% ≤ substrate protein remaining % ≤ 50%)”. For the same compound, at IKZF3 (hPBMCs), the “concentration at which IKZF3 protein was significantly degraded (Western blot, FIG. 1)” value was less than 500 nM. Moreover, the “substrate protein remaining % GSPT1” value at GSPT1 is given as “A (A represents 0% ≤ substrate protein remaining % ≤ 50%)”.
`O=C1CCC(N2C(=O)c3ccc(CN4CCN(C(c5ccccc5)c5ccccn5)CC4)cc3C2=O)C(=O)N1` (centres unmarked) [GT-05723, 2-(2,6-dioxopiperidin-3-yl)-5-((4-(phenyl(pyridin-2-yl)methyl)piperazin-1-yl)methyl) isoindoline-1,3-dione]: the “substrate protein remaining % IKZF1” value on IKZF1 is listed as “B (B represents substrate protein remaining % > 50%)”. The “substrate protein remaining % IKZF3” value on IKZF3 was “B (B represents substrate protein remaining % > 50%)”. Further, the “substrate protein remaining % GSPT1” value on GSPT1 is reported as “A (A represents 0% ≤ substrate protein remaining % ≤ 50%)”.
In the case of `CC1CN(C(=O)c2cc(F)c3c(c2)CN(C2CCC(=O)NC2=O)C3=O)CC(C)N1C(c1ccccc1)c1ccccc1` (centres unmarked) [GT-06060, 3-(5-(4-benzhydryl-3,5-dimethylpiperazine-1-carbonyl)-7-fluoro-1-oxoisoindolin-2-yl)piperidine-2,6-dione], in assay [1], the half-inhibitory concentration (IC50) (as a rule, the point on the concentration scale where inhibition reaches its midpoint) is 500 to 1000 nM.
The same measure, in the same setting: the result for `CC1(C)CN(C(=O)c2cc(F)c3c(c2)CN(C2CCC(=O)NC2=O)C3=O)CCN1C(c1ccccc1)c1ccccc1` (centres unmarked) [GT-06062, 3-(5-(4-benzhydryl-3,3-dimethylpiperazine-1-carbonyl)-7-fluoro-1-oxoisoindolin-2-yl)piperidine-2,6-dione] reads 500 to 1000 nM; that for `O=C1CCC(N2Cc3cc(C(=O)N4CCN(C5c6cc(Cl)ccc6-c6ccc(Cl)cc65)CC4)ccc3C2=O)C(=O)N1` (centres unmarked) [GT-06069, 3-(5-(4-(2,7-dichloro-9H-fluoren-9-yl)piperazine-1-carbonyl)-1-oxoisoindolin-2-yl)piperidine-2,6-dione], 500 to 1000 nM.
Consider `O=C1CCC(N2Cc3c(ccc(C4=CCN(C(c5ccccc5)c5ccccc5)CC4)c3F)C2=O)C(=O)N1` (centres unmarked) [GT-06072, 3-(5-(1-benzhydryl-1,2,3,6-tetrahydropyridin-4-yl)-4-fluoro-1-oxoisoindolin-2-yl)piperidine-2,6-dione], for which, in assay [1], the IC50 was less than 500 nM.
The same measure, in the same setting: the result for `O=C1CCC(N2Cc3cc(CN4CCN(C(c5ccccc5)c5ccccc5)CC4C(F)(F)F)cc(F)c3C2=O)C(=O)N1` (centres unmarked) [GT-06098, 3-(5-((4-benzhydryl-2-(trifluoromethyl)piperazin-1-yl)methyl)-7-fluoro-1-oxoisoindolin-2-yl)piperidine-2,6-dione] reads less than 500 nM; that for `O=C1CCC(N2Cc3cc(CN4CCN(C(c5ccccc5)c5cccnc5)CC4)cc(F)c3C2=O)C(=O)N1` (centres unmarked) [GT-06111, 3-(7-fluoro-1-oxo-5-((4-(phenyl(pyridin-3-yl)methyl)piperazin-1-yl)methyl)isoindolin-2-yl)piperidine-2,6-dione], less than 500 nM; that for `O=C1CCC(N2Cc3c(CN4CCN(C(c5ccccc5)c5cccnc5)CC4)cccc3C2=O)C(=O)N1` (centres unmarked) [GT-06113, 3-(1-oxo-4-((4-(phenyl(pyridin-3-yl)methyl)piperazin-1-yl)methyl)isoindolin-2-yl)piperidine-2,6-dione], 500 to 1000 nM.
On the same count and under the same terms, for `O=C1CCC(N2Cc3ccc(CN4CCN(C(c5cccc(F)c5)c5cccc(F)c5)CC4)cc3C2=O)C(=O)N1` (centres unmarked) [GT-06116, 3-(6-((4-(bis(3-fluorophenyl)methyl)piperazin-1-yl)methyl)-1-oxoisoindolin-2-yl)piperidine-2,6-dione] the value was 500 to 1000 nM.
As for `O=C1CCC(N2Cc3cc(CN4CCN(C(c5ccccc5)c5ccncc5)CC4)cc(F)c3C2=O)C(=O)N1` (centres unmarked) [GT-06135, 3-(7-fluoro-1-oxo-5-((4-(phenyl(pyridin-4-yl)methyl)piperazin-1-yl)methyl)isoindolin-2-yl)piperidine-2,6-dione], the IC50 in assay [1] was less than 500 nM.
The same measure, in the same setting: the result for `O=C1CCC(N2Cc3c(ccc(C4CCN(C(c5ccccc5)c5ccccc5)CC4)c3F)C2=O)C(=O)N1` (centres unmarked) [GT-06136, 3-(5-(1-benzhydrylpiperidin-4-yl)-4-fluoro-1-oxoisoindolin-2-yl)piperidine-2,6-dione] reads less than 500 nM; that for `O=C1CCC(N2Cc3cc(C(=O)N4CCN(C(c5ccccc5)c5ccncc5)CC4)ccc3C2=O)C(=O)N1` (centres unmarked) [GT-06144, 3-(1-oxo-5-(4-(phenyl(pyridin-4-yl)methyl)piperazine-1-carbonyl)isoindolin-2-yl)piperidine-2,6-dione], 500 to 1000 nM.
Still for that read-out and setting: the result for `O=C1CCC(N2Cc3ccc(C(=O)N4CCN(C(c5cccc(F)c5)c5cccc(F)c5)CC4)cc3C2=O)C(=O)N1` (centres unmarked) [GT-06149, 3-(6-(4-(bis(3-fluorophenyl)methyl)piperazine-1-carbonyl)-1-oxoisoindolin-2-yl)piperidine-2,6-dione] reads 500 to 1000 nM.
On to `O=C1CCC(N2Cc3cccc(C(=O)N4CCN(C(c5cccc(F)c5)c5cccc(F)c5)CC4)c3C2=O)C(=O)N1` (centres unmarked) [GT-06150, 3-(7-(4-(bis(3-fluorophenyl)methyl)piperazine-1-carbonyl)-1-oxoisoindolin-2-yl)piperidine-2,6-dione], for which the IC50 in assay [1] fell in the range of 500 to 1000 nM.
On the same count and under the same terms, the result for `O=C1CCC(N2Cc3cc(C4CCN(C(c5ccccc5)c5ccccc5)CC4)cc(F)c3C2=O)C(=O)N1` (centres unmarked) [GT-06198, 3-(5-(1-benzhydrylpiperidin-4-yl)-7-fluoro-1-oxoisoindolin-2-yl)piperidine-2,6-dione] reads less than 500 nM; that for `O=C1CCC(N2Cc3cc(NC4CCC(N(c5ccccc5)c5ccccc5)CC4)ccc3C2=O)C(=O)N1` (centres unmarked) [GT-06806, 3-(5-((4-(diphenylamino)cyclohexyl)amino)-1-oxoisoindolin-2-yl)piperidine-2,6-dione], 1000 to 1900 nM.

Source of the values: patent publication US20250320193A1, “OXOISOINDOLINYL SUBSTITUTED PIPERIDINEDIONE DERIVATIVE AND USE THEREOF” (GLUETACS THERAPEUTICS (SHANGHAI) CO., LTD., priority 2022, published 2025).
